Experiment [1] concerns the target T1, Recombinant TDO (Homo sapiens, UniProt P48775).
T1 construct: Recombinant TDO (Seegers, N., et al.) and all other assay components were diluted in TDO reaction buffer
The experiment in a line: Biochemical assay for TDO (NFK GreenScreen). To be noted: 50 nM TDO, 200 μM L-tryptophan. On the procedure:
Biochemical Assay for TDO
The NFK GreenScreen™ assay technology was also used to determine the inhibitory activity of compounds on TDO (Seegers, N., et al., J. Biol. Screen. 19: 1266; 2014). Compounds were serially diluted in DMSO and finally in TDO reaction buffer, consisting of 100 mM NaH2PO4, pH 7.0, supplemented with 0.02% Tween-20 (cat. No. P7949; Sigma Aldrich). Recombinant TDO (Seegers, N., et al.) and all other assay components were diluted in TDO reaction buffer. 10 μl of compound solution and 20 μl of enzyme solution supplemented with 200 μM ascorbic acid were combined in the well of a black 384-well plate (cat. no. 3573; Corning, Corning, N.Y., USA), and incubated for 60 min at room temperature. Subsequently, 10 μl of 0.8 mM of the substrate L-tryptophan was added, i.e., the final concentration of L-tryptophan was 200 μM. The DMSO concentration in the assay was 0.3%. The concentration of TDO was 50 nM. Incubation was continued for 15 min at room temperature. Then, 10 μl of NFK Green™ (NTRC, Oss, The Netherlands) was added, the plate was sealed, and the reaction was developed for 3 hours at 37° C. To determine the production of N-formyl kynurenine (NFK), the seal was removed and fluorescence was read on an EnVision multimode reader (Perkin Elmer, Waltham, Mass., USA). IC50 were calculated using XLfit™ software (ID Business Solutions, Ltd., Surrey, U.K.).

For experiment [2], the target named is CYP2D6 (Homo sapiens, UniProt P10635). In words: P450-Glo CYP2D6 Luc-IP assay.
Chain of CYP2D6 (P10635 whole entry): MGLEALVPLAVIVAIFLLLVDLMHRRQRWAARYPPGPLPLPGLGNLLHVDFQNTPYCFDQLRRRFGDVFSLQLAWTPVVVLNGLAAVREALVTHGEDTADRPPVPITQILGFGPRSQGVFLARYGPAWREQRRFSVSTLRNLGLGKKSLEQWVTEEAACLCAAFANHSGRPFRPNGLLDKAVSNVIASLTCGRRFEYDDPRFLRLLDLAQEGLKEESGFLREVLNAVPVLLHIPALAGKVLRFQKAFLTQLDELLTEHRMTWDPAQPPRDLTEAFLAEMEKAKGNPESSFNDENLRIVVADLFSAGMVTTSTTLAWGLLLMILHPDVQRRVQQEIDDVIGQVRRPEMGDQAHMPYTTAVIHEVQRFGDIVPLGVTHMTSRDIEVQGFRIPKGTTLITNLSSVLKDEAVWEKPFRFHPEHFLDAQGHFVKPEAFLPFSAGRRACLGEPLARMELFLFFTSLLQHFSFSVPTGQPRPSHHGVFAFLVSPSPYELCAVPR
The target of experiment [3] is CYP3A4 (Homo sapiens, UniProt P08684). In words: P450-Glo CYP3A4 luciferin isopropylacetal (Luc-IP) assay.
Chain of CYP3A4 (P08684 whole entry): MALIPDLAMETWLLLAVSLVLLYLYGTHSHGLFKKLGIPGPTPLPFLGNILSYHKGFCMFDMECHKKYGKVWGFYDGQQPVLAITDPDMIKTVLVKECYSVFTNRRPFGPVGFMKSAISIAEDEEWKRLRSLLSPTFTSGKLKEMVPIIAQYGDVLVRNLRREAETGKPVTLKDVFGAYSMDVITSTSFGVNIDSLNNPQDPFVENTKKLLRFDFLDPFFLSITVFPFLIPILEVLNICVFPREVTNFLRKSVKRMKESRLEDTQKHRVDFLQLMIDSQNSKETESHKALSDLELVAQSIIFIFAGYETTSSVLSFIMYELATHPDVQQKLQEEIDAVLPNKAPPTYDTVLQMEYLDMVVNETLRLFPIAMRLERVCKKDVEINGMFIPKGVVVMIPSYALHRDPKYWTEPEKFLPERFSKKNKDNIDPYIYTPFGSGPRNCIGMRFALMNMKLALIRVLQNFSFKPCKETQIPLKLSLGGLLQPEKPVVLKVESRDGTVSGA
Experiment [4] deals with T2, TDO in SW48 colorectal carcinoma cells (Homo sapiens, UniProt P48775).
T2 construct: Endogenous expression of TDO has been determined in a variety of cancer cell lines; host or cells: SW48 colorectal carcinoma cells
T2 sequence (P48775 whole entry): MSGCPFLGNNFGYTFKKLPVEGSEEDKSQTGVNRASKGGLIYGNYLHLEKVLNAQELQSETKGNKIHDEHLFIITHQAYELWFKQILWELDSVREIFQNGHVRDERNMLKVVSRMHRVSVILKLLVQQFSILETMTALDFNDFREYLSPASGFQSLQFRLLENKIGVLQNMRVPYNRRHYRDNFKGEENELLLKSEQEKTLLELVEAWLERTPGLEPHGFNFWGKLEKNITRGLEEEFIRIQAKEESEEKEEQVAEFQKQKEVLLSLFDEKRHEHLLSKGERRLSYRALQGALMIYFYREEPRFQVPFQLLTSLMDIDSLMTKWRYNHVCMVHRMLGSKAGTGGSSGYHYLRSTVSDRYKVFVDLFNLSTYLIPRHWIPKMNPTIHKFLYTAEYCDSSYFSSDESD
In words: Cell-based assay for TDO in SW48 colorectal carcinoma cells (NFK GreenScreen). The settings on record: 18 hours with L-tryptophan, read-out: IC50 on TDO in cells. On the procedure: The biological activity of TDO inhibitors can be measured by applying above detection methods to cells that are treated with test compound. Endogenous expression of TDO has been determined in a variety of cancer cell lines (Pilotte et al.; Seegers, et al.), or TDO can be expressed in cells that lack endogenous TDO by transfection of an expression vector containing TDO cDNA. […] A preferred assay is the cell-based NFK GreenScreen™ assay (Seegers et al, supra), which measures the cellular inhibitory activity of compounds on TDO. […] No. V9920). Cell-Based Assay for TDO The NFK GreenScreen™ assay technology was also used to determine the inhibitory activity of compounds on TDO in SW48 colorectal carcinoma cells (Seegers, N., et al., J. Biol. Screen. 19: 1266; 2014). […] Compounds were dissolved in DMSO and diluted in RPMI 1640. Final DMSO concentration in the assay was 0.4% (v/v). Eight thousand cells per well in 40 μl were seeded in a black 384-well tissue plate (cat. No. 781086; […] To determine NFK levels, 12 μl NFK Green™ (NTRC, Oss, The Netherlands) was added to each well, and the plate was sealed and incubated for 4 hours at 37° C. Fluorescence was measured on an EnVision multimode reader (Perkin Elmer, Waltham, Mass., USA).

The structures appear in SMILES notation. “And” between values parts separate entries of the source, which are not always exact repeats. Identical values can stand only once.

T1 sequence (P48775 whole entry): as above

As a reminder, the IC50 is the concentration that gives 50% inhibition. Take `C[C@H](CO)NC(=O)c1ccc(-c2c[nH]c3ccc(F)cc23)cc1` [Example 37, 4-(5-Fluoro-1H-indol-3-yl)-N-[(1R)-2-hydroxy-1-methyl-ethyl]benzamide]: the IC50 in experiment [1] was less than 1 µM; in experiment [2], greater than 10 µM; in experiment [3], greater than 10 µM.

Turning to `CN(C)CCCNC(=O)c1ccc(-c2c[nH]c3ccc(F)cc23)cc1` [Example 38, N-[3-(dimethylamino)propyl]-4-(5-fluoro-1H-indol-3-yl)benzamide], the values for the 50% inhibitory concentration (IC50) in experiment [1], in experiment [2] and in experiment [3] were less than 1 µM, greater than 10 µM and greater than 10 µM, respectively.

`O=C(NCC(F)(F)F)c1ccc(-c2c[nH]c3ccc(F)cc23)cc1` [Example 39, 4-(5-Fluoro-1H-indol-3-yl)-N-(2,2,2-trifluoroethyl)benzamide]: the results for the half-inhibitory concentration (IC50) in experiment [1], in experiment [2] and in experiment [3] were less than 1 µM, greater than 10 µM and greater than 10 µM, respectively.

Turning to `C[C@@H](CO)NC(=O)c1ccc(-c2c[nH]c3ccc(F)cc23)cc1` [Example 40, 4-(5-Fluoro-1H-indol-3-yl)-N-[(1S)-2-hydroxy-1-methyl-ethyl]benzamide], the IC50 in experiment [1] was less than 1 µM; in experiment [2], greater than 10 µM; in experiment [3] it was greater than 10 µM.

On to `O=C(N[C@H]1CCCNC1)c1ccc(-c2c[nH]c3ccc(F)cc23)cc1` [Example 41, 4-(5-Fluoro-1H-indol-3-yl)-N-[(3S)-3-piperidyl]benzamide], for which the IC50 in experiment [1] is less than 1 µM; in experiment [2], greater than 10 µM; in experiment [3], greater than 10 µM.

As to `O=C(NOC(CO)CO)c1ccc(-c2c[nH]c3cc(F)ccc23)cc1` [Example 65, 4-(6-Fluoro-1H-indol-3-yl)-N-[2-hydroxy-1-(hydroxymethyl)ethoxy]benzamide], the IC50 in experiment [1] was less than 1 µM; in experiment [2], greater than 10 µM; in experiment [3], 5 to 10 µM.

Consider `O=C(NOC[C@H](O)CO)c1ccc(-c2c[nH]c3cc(F)ccc23)cc1` [Example 67, N-[(2R)-2,3-dihydroxypropoxy]-4-(6-fluoro-1H-indol-3-yl)benzamide], for which the IC50 was less than 1 µM in experiment [1], greater than 10 µM in experiment [2] and 5 to 10 µM in experiment [3].

Consider `Nc1ccn(C(=O)c2ccc(-c3c[nH]c4cc(F)ccc34)cc2)n1` [Example 85, (3-Aminopyrazol-1-yl)-[4-(6-fluoro-1H-indol-3-yl)phenyl]methanone], for which the IC50 was 1 to 5 µM in experiment [1], 5 to 10 µM in experiment [2] and greater than 10 µM in experiment [3].

Take `C[C@H](NC(=O)c1ccc(-c2c[nH]c3cc(F)ccc23)cc1)C(C)(C)C` [Example 88, 4-(6-Fluoro-1H-indol-3-yl)-N-[(1S)-1,2,2-trimethylpropyl]benzamide]: the IC50 in experiment [1] is 1 to 5 µM; in experiment [2], greater than 10 µM; in experiment [3], greater than 10 µM.

For `O=C(NCC1(O)CCCCC1)c1ccc(-c2c[nH]c3cc(F)ccc23)cc1` [Example 89, 4-(6-Fluoro-1H-indol-3-yl)-N-[(1-hydroxycyclohexyl)methyl]benzamide], the figures for the IC50 in experiment [1], in experiment [2] and in experiment [3] were 1 to 5 µM, greater than 10 µM and greater than 10 µM, respectively.

Turning to `NCCNC(=O)c1ccc(-c2c[nH]c3cc(F)ccc23)cc1` [Example 90, N-(2-aminoethyl)-4-(6-fluoro-1H-indol-3-yl)benzamide], the figures for the IC50 in experiment [1], in experiment [2] and in experiment [3] were less than 1 µM, greater than 10 µM and greater than 10 µM, respectively.

On to `O=C(NC[C@H]1CCNC1)c1ccc(-c2c[nH]c3cc(F)ccc23)cc1` [Example 91, 4-(6-Fluoro-1H-indol-3-yl)-N-[[(3S)-pyrrolidin-3-yl]methyl]benzamide], for which the IC50 is less than 1 µM in experiment [1], greater than 10 µM in experiment [2] and 5 to 10 µM in experiment [3].

With `CC(C)NC(=S)N1CCC[C@@H](CNC(=O)c2ccc(-c3c[nH]c4cc(F)ccc34)cc2)C1` [Example 92, 4-(6-Fluoro-1H-indol-3-yl)-N-[[(3S)-1-(isopropylcarbamothioyl)-3-piperidyl]methyl]benzamide], the IC50 in experiment [1] is 1 to 5 µM; in experiment [2] it was greater than 10 µM; in experiment [3], greater than 10 µM.

Consider `O=C(CCc1ccccc1)Nc1ccc(-c2c[nH]c3cc(F)ccc23)cc1` [Example 96, N-[4-(6-fluoro-1H-indol-3-yl)phenyl]-3-phenyl-propanamide], for which the values for the IC50 in experiment [1], in experiment [2] and in experiment [3] were 1 to 5 µM, greater than 10 µM and greater than 10 µM, respectively.

As for `O=C(CC1(O)CCCC1)Nc1ccc(-c2c[nH]c3cc(F)ccc23)cc1` [Example 98, N-[4-(6-fluoro-1H-indol-3-yl)phenyl]-2-(1-hydroxycyclopentyl)acetamide], the IC50 in experiment [1] is less than 1 µM; in experiment [2] it was greater than 10 µM; in experiment [3], greater than 10 µM.

Turning to `Cc1cc(CC(=O)Nc2ccc(-c3c[nH]c4cc(F)ccc34)cc2)no1` [Example 99, N-[4-(6-Fluoro-/H-indol-3-yl)phenyl]-2-(5-methylisoxazol-3-yl)acetamide], the IC50 in experiment [1] was 1 to 5 µM; in experiment [2], greater than 10 µM; in experiment [3], greater than 10 µM.

Consider `Cn1cc(CCC(=O)Nc2ccc(-c3c[nH]c4cc(F)ccc34)cc2)cn1` [Example 107, N-[4-(6-fluoro-1H-indol-3-yl)phenyl]-3-(1-methylpyrazol-4-yl)propanamide], for which the IC50 was ≤ 0.5 µM and 0.2 to 0.5 µM in experiment [4]; greater than 10 µM in experiment [2]; greater than 10 µM in experiment [3].

Take `CN1CC(C(=O)Nc2ccc(-c3c[nH]c4cc(F)ccc34)cc2)CCC1=O` (stereo not drawn) [Example 108, N-[4-(6-fluoro-1H-indol-3-yl)phenyl]-1-methyl-6-oxo-piperidine-3-carboxamide]: the values for the IC50 in experiment [1], in experiment [2] and in experiment [3] were 1 to 5 µM, greater than 10 µM and greater than 10 µM, respectively.

For the molecule `CS(=O)(=O)N1CCCC(NC(=O)c2ccc(-c3c[nH]c4cc(F)ccc34)cc2)C1` (stereo not drawn) [Example 120, 4-(6-Fluoro-1H-indol-3-yl)-N-(1-methylsulfonyl-3-piperidyl)benzamide], the IC50 in experiment [4] was ≤ 0.5 µM and 0.2 to 0.5 µM; in experiment [2], greater than 10 µM; in experiment [3], greater than 10 µM.

`CCOC(=O)N1CCCC(NC(=O)c2ccc(-c3c[nH]c4cc(F)ccc34)cc2)C1` (stereo not drawn) [Example 121, Ethyl 3-[[4-(6-fluoro-1H-indol-3-yl)benzoyl]amino]piperidine-1-carboxylate]: the IC50 in experiment [1] is less than 1 µM; in experiment [2] it was greater than 10 µM; in experiment [3], greater than 10 µM.

In the case of `Cc1cc(C(=O)N[C@@H](C)CO)ccc1-c1c[nH]c2cc(F)ccc12` [Example 126, 4-(6-Fluoro-1H-indol-3-yl)-N-[(1S)-2-hydroxy-1-methyl-ethyl]-3-methyl-benzamide], the values for the IC50 in experiment [1], in experiment [2] and in experiment [3] were 1 to 5 µM, 5 to 10 µM and 5 to 10 µM, respectively.

In the case of `Cc1cc(C(=O)N[C@H](C)CO)ccc1-c1c[nH]c2cc(F)ccc12` [Example 128, 4-(6-Fluoro-1H-indol-3-yl)-N-[(1R)-2-hydroxy-1-methyl-ethyl]-3-methyl-benzamide], the figures for the IC50 in experiment [1], in experiment [2] and in experiment [3] were 1 to 5 µM, 5 to 10 µM and 5 to 10 µM, respectively.

With `Cc1cc(C(=O)N[C@H]2CCCNC2)ccc1-c1c[nH]c2cc(F)ccc12` [Example 130, 4-(6-Fluoro-1H-indol-3-yl)-3-methyl-N-[(3S)-3-piperidyl]benzamide], the values for the IC50 in experiment [1], in experiment [2] and in experiment [3] were less than 1 µM, greater than 10 µM and 5 to 10 µM, respectively.

As to `COC(=O)CNC(=O)c1ccc(-c2c[nH]c3cc(F)ccc23)cc1` [Example 138, Methyl 2-[[4-(6-fluoro-1H-indol-3-yl)benzoyl]amino]acetate], the 50% inhibitory concentration (IC50) was less than 1 µM in experiment [1], greater than 10 µM in experiment [2] and greater than 10 µM in experiment [3].

Source of the values: patent US10689343B2, “Inhibitors of tryptophan 2,3-dioxygenase” (NETHERLANDS TRANSLATIONAL RESEARCH CENTER B.V., priority 2016, dated 2020).
